Laboratory results as given in patent US20170246223A1 (priority 2016, published 2017).

Columns and labels:
E. coli = assay: in vitro cytotoxicity screen of drugs co-incubated with E. coli (tumour cell survival, MTS); format: cell-based, E. coli Nissle 1917; details: drug co-incubated with E. coli, bacteria removed, filtrate applied to tumour cells; change relative to reference cytotoxic effect (drug without bacteria)
Protocol: (§1) 1. Bacteria and Drug are mixed in DMEM medium, and co-incubated for 3 h at 37° C. 2. The drug is separated from bacteria using centrifugation and filtration. 3. The filter sterilised DMEM containing the transformed drug is applied to tumour cells in a 96 well plate. 4. Tumour cell viability is evaluated via the MTS assay for end point measurements.
Bioluminescent E. coli was described by us previously and cultured in the presence of […] erythromycin. Listeria welshimeri Serovar 6B SLCC5334 was purchased from ECACC and cultivated at 37° C. in Brain Heart Infusion (BHI) medium. B. breve UCC2003 and Lactococcus lactis (UCC Culture Collection) was routinely grown at 37° C. in reinforced clostridial medium and M17 medium respectively (Oxoid, Basingstoke, UK). All lactobacilli strains were a kind gift of Dr. Cormac Gahan, UCC School of microbiology, and were grown in lactobacillus MRS broth (Beckton Dickinson). The E. coli nitroreductase deletion mutants and parent strains were kindly provided by Dr. Antonio Valle and grown in LB broth/agar with appropriate antibiotics. The strain Δ+A was created by transforming AB502 (streptomycin, kanamycin sensitive derivative of parent strain AB1157) with the plasmid pNZ44 (chloramphenicol resistance) carrying the gene nfsA. The strain Δ+B was created by transforming AB502 with the plasmid pTrc99A (ampicillin resistance) containing the gene nfsB (see below).
Microtitre plates (96-well) were pre-seeded with 4000 cells/well in appropriate medium for each cell line and allowed to attach overnight. The next day, bacteria were cultured to log-phase or stationery phase (Gram-positive) resuspended in PBS and added to 2 mls of DMEM to an OD600mn of 0.1-0.2 for E. coli 0.05 for Lactococcus lactis, and 0.3-0.4 for the rest of the Grand-positives. Each strain was exposed for 2-3 h to drug in a tissue culture incubator. Bacteria were separated from the drug by centrifugation and filter sterilisation using 0.2 μm pore filters (Starsted) after which 200 μl of filtrate was transferred to each well. […] Cytotoxicity was quantified using an MTS staining with the Cell Titre 96 AQueous One solution Cell Proliferation Assay (Promega). The plates were measured and analysed in a Spectra max M2 (Molecular devices) spectrophotometer at 490 nm.

CT26 tumours = assay: Subcutaneous flank CT26 tumours in Balb/c mice, bacteria i.t. plus drug i.p., survival; format: in vivo
Protocol: Subcutaneous flank CT26 tumours growing in Balb/c mice were injected i.t with bacteria or PBS vehicle alone. Gemcitabine (60 mg/kg) was injected i.p. five times at three day intervals. FIG. 3A) Tumour volume (%) relative to the first day of gemcitabine injection (day 0) is shown. *P<0.03, **P=0.002 for gemcitabine alone versus gemcitabine+bacteria. […] Data are expressed as mean±SEM of 4 to 8 individual mice per group.
Subcutaneous flank CT26 tumours growing in Balb/c mice were injected i.t with bacteria or PBS vehicle alone. CB1954 (20 mg/kg) was injected i.p. for the duration of the experiment at 3 day intervals. FIG. 4A) Tumour volume (%) relative to the first day of CB1954 injection (day 0) is shown. […] P=0.0374). Data are expressed as mean±SEM of 3-5 individual mice per group.
FIGS. 12A-12D: Tumour therapy via in vivo activation of prodrugs. BALB/c mice bearing subcutaneous CT26 flank tumours colonised by E. coli Nissle 1917 received IP injections of CB1954+PBS, 5-FC+PBS, CB1954+5-FC or PBS three times per week. Tumours were monitored for changes in volume and luminescence (where applicable) from live bacteria on each treatment day. FIG. 12A) The change in bacterial luminescence (relative to day 0) from tumour colonising luminescent E. coli is shown. […] FIG. 12B) Changes in CT26 tumour volume were monitored until the first death in the group determined by a predefined endpoint. FIG. 12C-12D) Survival plot of each group starting from the first day of bacteria/drug administration.
Animals and tumour induction: 6-8 week old female BALB/c mice weighing approximately 18-20 g were kept as previously described. For tumour induction, a 200 μl suspension of 2×10^5 CT26 cells in serum free Dulbecco's Modified Eagle's Medium (DMEM) culture medium were injected subcutaneously into the flank of BALB/c mice. The viability of inoculated cells was determined using the Nucleocounter system (ChemoMetec). Tumour growth was monitored three times per week by caliper measurement and mice were randomly assigned to groups when the tumours reached approximately 100 mm^3 in volume. Mice were culled once tumours reached 1.5×1.5 cm in size (predetermined endpoint).
Bacterial administration to mice: Bacteria were grown overnight in LB medium and in a shaking incubator at 37° C. These bacteria were used to inoculate fresh growth medium and allowed to grow until reaching OD600 0.6. […]
Statistical analysis For biological in vitro and in vivo assays, two-sided, paired student's t test with 95% confidence or Mann Whitney U test were employed to investigate statistical differences, using GraphPad Prism@5.0 or Microsoft Excel 12. […] Statistical significance of survival between groups in murine experiments was determined using the Log-rank (Mantel-Cox) Test. […]

L. welshimeri = assay: in vitro cytotoxicity screen of drugs co-incubated with L. welshimeri (tumour cell survival, MTS); format: cell-based, Listeria welshimeri Serovar 6B SLCC5334; details: drug co-incubated with L. welshimeri, bacteria removed, filtrate applied to tumour cells; change relative to reference cytotoxic effect (drug without bacteria)
Protocol: as §1
Bioluminescent E. coli was described by us previously and cultured in the presence of […] erythromycin. Listeria welshimeri Serovar 6B SLCC5334 was purchased from ECACC and cultivated at 37° C. in Brain Heart Infusion (BHI) medium. B. breve UCC2003 and Lactococcus lactis (UCC Culture Collection) was routinely grown at 37° C. in reinforced clostridial medium and M17 medium respectively (Oxoid, Basingstoke, UK). All lactobacilli strains were a kind gift of Dr. Cormac Gahan, UCC School of microbiology, and were grown in lactobacillus MRS broth (Beckton Dickinson). […]
Microtitre plates (96-well) were pre-seeded with 4000 cells/well in appropriate medium for each cell line and allowed to attach overnight. […] Cytotoxicity was quantified using an MTS staining with the Cell Titre 96 AQueous One solution Cell Proliferation Assay (Promega). The plates were measured and analysed in a Spectra max M2 (Molecular devices) spectrophotometer at 490 nm.

| SMILES | Cytotoxicity E. coli (E. coli) | also measured |
| --- | --- | --- |
| Nc1nc(=O)[nH]cc1F [5-fluorocytosine] | Up |  |
| OC[C@H]1O[C@@H](n2cnc3c(S)ncnc32)C[C@@H]1O [6-Mercaptopurine-2′-deoxyriboside] | Up |  |
| C[N+](C)([O-])CCNc1ccc(NCC[N+](C)(C)[O-])c2c1C(=O)c1c(O)ccc(O)c1C2=O [AQ4N] | Up |  |
| CC1(C)CCC2=C(O1)c1ccccc1C(=O)C2=O [B-Lapachone] | Down |  |
| NC(=O)c1cc(N2CC2)c([N+](=O)[O-])cc1[N+](=O)[O-] [CB1954] | Up | median survival post Day 0 (CT26 tumours; CB1954+bacteria group, E. coli i.t., CB1954 20 mg/kg i.p. at 3 day intervals, P=0.0374 vs CB1954 alone): 26 days; median survival post Day 0 (CT26 tumours; CB1954 alone group (PBS i.t.), 20 mg/kg i.p. at 3 day intervals): 8 days |
| Nc1nc(Cl)nc2c1ncn2[C@H]1C[C@H](O)[C@@H](CO)O1 [Cladribine] | reduced cytotoxic effect and Down |  |
| COc1cccc2c1C(=O)c1c(O)c3c(c(O)c1C2=O)C[C@@](O)(C(C)=O)C[C@@H]3O[C@H]1C[C@H](N)[C@H](O)[C@H](C)O1 [Daunorubicin] | Down |  |
| COc1cccc2c1C(=O)c1c(O)c3c(c(O)c1C2=O)C[C@@](O)(C(=O)CO)C[C@@H]3O[C@H]1C[C@H](N)[C@H](O)[C@H](C)O1 [Doxorubicin] | Down |  |
| COc1cc([C@@H]2c3cc4c(cc3[C@@H](O[C@@H]3O[C@@H]5CO[C@@H](C)O[C@H]5[C@H](O)[C@H]3O)[C@H]3COC(=O)[C@H]23)OCO4)cc(OC)c1OP(=O)(O)O [Etoposide phosphate] | Down |  |
| Nc1nc(F)nc2c1ncn2[C@@H]1O[C@H](COP(=O)(O)O)[C@@H](O)[C@@H]1O [Fludarabine de phosphate] | Up | Cytotoxicity L. welshimeri (L. welshimeri): Up |
| Nc1ccn([C@@H]2O[C@H](CO)[C@@H](O)C2(F)F)c(=O)n1 [Gemcitabine] | Down | median survival post Day 0 (CT26 tumours; gemcitabine alone group (PBS i.t.), 60 mg/kg i.p. five times at three day intervals): 28 days; median survival post Day 0 (CT26 tumours; gemcitabine+bacteria group, E. coli i.t., gemcitabine 60 mg/kg i.p. five times at three day intervals, P=0.008 vs gemcitabine alone): 17 days |
| CC(=O)[C@]1(O)Cc2c(O)c3c(c(O)c2[C@@H](O[C@H]2C[C@H](N)[C@H](O)[C@H](C)O2)C1)C(=O)c1ccccc1C3=O [Idarubicin] | Down |  |
| CC1=CC(=O)c2ccccc2C1=O [Menadione] | Down |  |
| O=C1c2c(O)ccc(O)c2C(=O)c2c(NCCNCCO)ccc(NCCNCCO)c21 [Mitoxantrone] | Down |  |
| O=c1[nH]c(=O)n(C2CCCO2)cc1F (stereo not drawn) [Tegafur] | Up |  |
| Nc1ncnc2c1ncn2[C@@H]1O[C@H](CO)[C@@H](O)[C@@H]1O [Vidarabine] | Down |  |
